The source of these data is patent publication US20090048301A1 (IMCLONE SYSTEMS INCORPORATED, priority 2003, published 2009).

“And” between values parts separate entries of the source, which are not always exact repeats. Equal values may be shown once. Read-outs that look alike come from different tables or passages of the source.

The subject of one experiment is bovine tubulin. Put plainly: In vitro tubulin polymerization assay (turbidity at 340 nm). Format: biochemical. Conditions: 10 μM compound, 30 minute data point, vs 1% DMSO control. The essentials: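 Percent inhibition derives from turbidity (340 nm) at 30 min relative to 1% DMSO controls, read every minute at 37° C. Polymerization mix: 3 mg/ml bovine tubulin, <3% MAPs, in PIPES pH 7 G-PEM with 1 mM GTP, 1 mM MgCl2, 5% glycerol; enhancers also detectable.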

Experiment [1] deals with A431, human epidermoid carcinoma cells. The experiment can be described thus: Cell cycle analysis (FACS), mitotic arrest in G2/M. Format: cell-based. Conditions: read-out: FACS Assay: concentration required to achieve inhibition in FACS assay. As to the method: The cell cycle analysis was performed as follows. Cancer cells (A431, human epidennoid carcinoma cells) were maintained in culture in D-MEM media with 10% FBS and 1 mg/ml glutamate. Prior to experiment, cells were plated onto 6-well plates for a final density of 500,000 cells/well at the time of treatment. Cells were treated with the compounds of the invention at a concentration of about 0.01 to 1 μM final concentrations (final 0.1% DMSO) for 24 hours, then trypsinized, collected, rinsed in PBS (phosphate buffered saline), and fixed in 70% cold ethanol overnight at 4° C. The cells were then rinsed with PBS, resuspended in PBS with 0.2% Tween, RNAse was added (final 1 μg/ml), cells were incubated at 37° C. for 15 min, followed by addition of Propidium Iodide (final 50 μg/ml), and a 30 minute incubation at room temperature. DNA ploidy was analyzed using flow cytometers (Epics Excel, Beckman-Coulter, or Guava PCA-96, Guava Technologies) and mitotic arrest characterized by massive accumulation of cells in the G2/M phase of cell cycle.
Cancer cells (A431, human epidermoid cells) were maintained in culture in D-MEM media with 10% FBS and 1 mg/ml glutamate. Prior to experiment, cells are plated onto 6-well plates for a final density of 500,000 cells/well at the time of treatment. Cells were treated with compounds at 0.01-1 μM final concentrations (final […] DMS 0) for 24 hours, then trypsinized, collected, rinsed in PBS (phosphate buffered saline), and fixed in 70% cold ethanol overnight at 4° C. Cells were then rinsed with PBS, resuspended in PBS with 0.2% Tween, RNAse was added (final 1 μg/ml), cells were incubated at 37° C. for 15 min, followed by addition of Propidium Iodide (final 50 μg/ml), and a 30 minute incubation at room temperature. DNA ploidy was analyzed using cell sorters (Epics Excel, Beckman-Coulter, or Guava PCA-96, Guava Technologies) and mitotic arrest characterized by massive accumulation of cells in the G2/M phase of cell cycle.
(In general: In flow cytometry, cells or beads pass a laser one at a time.)

For `c1ccc(CNc2ncccc2-c2nnc(Nc3ccc4c(c3)OCCO4)o2)nc1` [Compound 207, {3-[5-(2,3-Dihydro-benzo[1,4]dioxin-6-ylamino)-[1,3,4]oxadiazol-2-yl]-pyridin-2-yl}-pyridin-2-ylmethyl-amine], the “Tubulin Assay: percent inhibition at 10 μM based on 30 minute data” value (shortened to “Tubulin Assay: percent inhibition”) in the experiment on bovine tubulin was found to be 87%. For the same compound, the minimal effective concentration in experiment [1] (Homo sapiens, A-431, 24 h) was 0.025 µM.
In the same order, the values of `CS(=O)(=O)c1ccc(-c2nnc(-c3cccnc3NCc3ccco3)[nH]2)cc1` [Compound 98, Furan-2-ylmethyl-{3-[5-(4-methanesulfonyl-phenyl)-4H-[1,2,4]triazol-3-yl]-pyridin-2-yl}-amine] are 83% and 1 µM.
Taken in the same sequence, the figures for `c1cnc(OCc2ccc3c(c2)OCO3)c(-c2nnc(Nc3ccc4c(c3)OCCO4)o2)c1` [Compound 209, {5-[2-(Benzo[1,3]dioxol-5-ylmethoxy)-pyridin-3-yl]-[1,3,4]oxadiazol-2-yl}-(2,3-dihydro-benzo[1,4]dioxin-6-yl)-amine] were 80% and 1 µM.
In the same order, the values of `c1cnc(NCc2ccc3c(c2)CCO3)c(-c2nnc(Nc3ccc4c(c3)OCO4)o2)c1` [Compound 198, {3-[5-(Benzo[1,3]dioxol-5-ylamino)-[1,3,4]oxadiazol-2-yl]-pyridin-2-yl}-(2,3-dihydro-benzofuran-5-ylmethyl)-amine] are 87% and 0.1 µM.
For `Fc1cccc(CNc2ncccc2-c2nnc(Nc3ccc4c(c3)OCCO4)o2)c1` [Compound 168, {3-[5-(2,3-Dihydro-benzo[1,4]dioxin-6-ylamino)-[1,3,4]oxadiazol-2-yl]-pyridin-2-yl}-(3-fluoro-benzyl)-amine], the “Tubulin Assay: percent inhibition” value with bovine tubulin stood at 95%. Besides, in experiment [1] (Homo sapiens, A-431, 24 h), the minimal effective concentration was 0.1 µM.
Taken in the same sequence, the figures for `COc1cc(Nc2nnc(-c3cccnc3NCc3ccco3)o2)cc(OC)c1OC` [Compound 197, Furan-2-ylmethyl-{3-[5-(3,4,5-H trimethoxy-phenylamino)-[1,3,4]oxadiazol-2-yl]-pyridin-2-yl}-amine] were 66% and 1 µM.
On to `c1ccc(-c2nnc(Nc3ccc4c(c3)OCO4)[nH]2)c(NCc2ccc3[nH]ncc3c2)c1` [Compound 119, Benzo[1,3]dioxol-5-yl-(5-{2-[(1H-indazol-5-ylmethyl)-amino]-phenyl}-4H-[1,2,4]triazol-3-yl)-amine], for which, in the experiment with bovine tubulin, the “Tubulin Assay: percent inhibition” value came out at 76%. The minimal effective concentration in experiment [1] (Homo sapiens, A-431, 24 h) came out at 1 µM.
For `COc1cccc(-c2nnc(-c3ccccc3NCc3ccc4c(c3)OCO4)[nH]2)c1` [Compound 148, Benzo[1,3]dioxol-5-ylmethyl-{2-[5-(3-methoxy-phenyl)-4H-[1,2,4]triazol-3-yl]-phenyl}-amine], in the experiment on bovine tubulin, the “Tubulin Assay: percent inhibition” value is listed as 71%. Moreover, the minimal effective concentration in experiment [1] (Homo sapiens, A-431, 24 h) amounted to 10 µM.
Regarding `COc1ccc(CNc2ncccc2-c2nnc(Nc3ccc4c(c3)OCCO4)[nH]2)cc1` [Compound 51, {3-[5-(2,3-Dihydro-benzo[1,4]dioxin-6-ylamino)-4H-[1,2,4]triazol-3-yl]-pyridin-2-yl}-(4-methoxy-benzyl)-amine], in the experiment with bovine tubulin, the “Tubulin Assay: percent inhibition” value came out at 68%. Further, in experiment [1] (Homo sapiens, A-431, 24 h), the minimal effective concentration is 1 µM.
Taken in the same sequence, the figures for `c1ccc(-c2nnc(Nc3ccc4c(c3)OCO4)o2)c(NCc2cn[nH]c2)c1` [Compound 224, Benzo[1,3]dioxol-5-yl-(5-{2-[(1H-pyrazol-4-ylmethyl)-amino]-phenyl}-[1,3,4]oxadiazol-2-yl)-amine] were 81% and 1 µM.
Regarding `c1cnc(N2CCOCC2)c(-c2nnc(Nc3ccc4c(c3)OCCO4)o2)c1` [Compound 170, (2,3-Dihydro-benzo[1,4]dioxin-6-yl)-[5-(2-morpholin-4-yl-pyridin-3-yl)-[1,3,4]oxadiazol-2-yl]-amine], the “Tubulin Assay: percent inhibition” value with bovine tubulin came out at 55%. Further, the minimal effective concentration in experiment [1] (Homo sapiens, A-431, 24 h) came out at 0.1 µM.
In the same order, the values of `c1ccc(-c2nnc(Nc3ccc4c(c3)OCCO4)[nH]2)c(NCc2ccncc2)c1` [Compound 122, (2,3-Dihydro-benzo[1,4]dioxin-6-yl)-(5-{2-[(pyridin-4-ylmethyl)-amino]-phenyl}-4H-[1,2,4]triazol-3-yl)-amine] are 84% and 1 µM.
In the same order, the values of `COc1ccc(CNc2ncccc2-c2nnc(Nc3ccc4c(c3)OCO4)o2)cc1` [Compound 157, {3-[5-(Benzo[1,3]dioxol-5-ylamino)-[1,3,4]oxadiazol-2-yl]-pyridin-2-yl}-(4-methoxy-benzyl)-amine] are 92% and 1 µM.
In the same order, the values of `CS(=O)(=O)c1ccc(-c2nnc(-c3ccccc3NCc3ccc4c(c3)OCO4)[nH]2)cc1` [Compound 133, Benzo[1,3]dioxol-5-ylmethyl-{2-[5-(4-methanesulfonyl-phenyl)-4H-[1,2,4]triazol-3-yl]-phenyl}-amine] are 86% and 1 µM.
For the compound `FC(F)(F)Oc1cccc(-c2nnc(-c3ccccc3NCc3ccc4c(c3)OCO4)[nH]2)c1` [Compound 141, Benzo[1,3]dioxol-5-ylmethyl-{2-[5-(3-trifluoromethoxy-phenyl)-4H-[1,2,4]triazol-3-yl]-phenyl}-amine], the “Tubulin Assay: percent inhibition” value in the experiment with bovine tubulin is 88%. In addition, the minimal effective concentration in experiment [1] (Homo sapiens, A-431, 24 h) turned out to be 0.1 µM.
As for `COc1cc(CNc2ccccc2-c2cnc(Nc3ccc4c(c3)OCCO4)o2)cc(OC)c1` [Compound 246, (2,3-Dihydro-benzo[1,4]dioxin-6-yl)-{5-[2-(3,5-dimethoxy-benzylamino)-phenyl]-oxazol-2-yl}-amine], the “Tubulin Assay: percent inhibition” value in the experiment on bovine tubulin came to 72%. The minimal effective concentration in experiment [1] (Homo sapiens, A-431, 24 h) stood at 1 µM.
For `c1coc(CNc2ncccc2-c2nnc(Nc3ccc4c(c3)OCCO4)o2)c1` [Compound 205, {3-[5-(2,3-Dihydro-benzo[1,4]dioxin-6-ylamino)-[1,3,4]oxadiazol-2-yl]-pyridin-2-yl}-furan-2-ylmethyl-amine], the “Tubulin Assay: percent inhibition” value with bovine tubulin is on record as 56%. Also, in experiment [1] (24 hours), the minimal effective concentration amounted to 1 µM.
Consider `Fc1ccc(CNc2ncccc2-c2nnc(Nc3ccc4c(c3)OCCO4)o2)cc1` [Compound 169, {3-[5-(2,3-Dihydro-benzo[1,4]dioxin-6-ylamino)-[1,3,4]oxadiazol-2-yl]-pyridin-2-yl}-(4-fluoro-benzyl)-amine], for which the “Tubulin Assay: percent inhibition” value in the experiment on bovine tubulin is reported as 82%. Further, the minimal effective concentration in experiment [1] (Homo sapiens, A-431, 24 h) amounted to 0.1 µM.
As to `COc1cc(Nc2ncccc2-c2nnc(Nc3ccc4c(c3)OCCO4)[nH]2)cc(OC)c1` [Compound 50, {3-[5-(2,3-Dihydro-benzo[1,4]dioxin-6-ylamino)-4H-[1,2,4]triazol-3-yl]-pyridin-2-yl}-(3,5-dimethoxy-phenyl)-amine], the “Tubulin Assay: percent inhibition” value in the experiment with bovine tubulin is recorded as 90%. In addition, the minimal effective concentration in experiment [1] (Homo sapiens, A-431, 24 h) worked out at 0.1 µM.
In the same order, the values of `c1ccc(-c2nnc(Nc3ccc4c(c3)OCCO4)[nH]2)c(NCc2ccc3[nH]ncc3c2)c1` [Compound 117, (2,3-Dihydro-benzo[1,4]dioxin-6-yl)-(5-{2-[(1H-indazol-5-ylmethyl)-amino]-phenyl}-4H-[1,2,4]triazol-3-yl)-amine] are 84% and 1 µM.
Taken in the same sequence, the figures for `Fc1ccc(CNc2ncccc2-c2nnc(Nc3ccc4c(c3)OCCO4)[nH]2)cc1F` [Compound 44, (3,4-Difluoro-benzyl)-{3-[5-(2,3-dihydro-benzo[1,4]dioxin-6-ylamino)-4H-[1,2,4]triazol-3-yl]-pyridin-2-yl}-amine] were 84% and 1 µM.
For the compound `Fc1ccc(CNc2ncccc2-c2nnc(Nc3ccc4c(c3)OCO4)o2)cc1` [Compound 172, {3-[5-(Benzo[1,3]dioxol-5-ylamino)-[1,3,4]oxadiazol-2-yl]-pyridin-2-yl}-(4-fluoro-benzyl)-amine], the “Tubulin Assay: percent inhibition” value in the experiment with bovine tubulin was 95% and 87%. Besides, the minimal effective concentration in experiment [1] (Homo sapiens, A-431, 24 h) is 0.1 µM.
